Reference: the NIST ThermoML archive (doi:10.1016/j.fluid.2012.09.038)
Numbers after ± are expanded uncertainties.

What was measured:
[1] = 101.33 kPa, Liquid, Vibrating tube method
[2] = refractive index (Na D-line) (dimensionless); conditions: 101.33 kPa, Liquid, Standard Abbe refractometry

| mass density ([1]; 298.2 K) [kg/m3] | refractive index ([2]; 298.2 K) | mass density ([1]; 293.2 K) [kg/m3] | refractive index ([2]; 293.2 K) | Compound |
| --- | --- | --- | --- | --- |
| 866.7 ± 0.2 | 1.3975 ± 0.0008 | – | – | CC(=O)OCCC(C)C [3-methylbutyl ethanoate] |
| – | – | 887.9 ± 0.2 | 1.4049 ± 0.0008 | CC(=O)CCC(C)C [5-methyl-2-hexanone] |
| – | 1.3324 ± 0.0008 | – | – | O [water] |
